Consider three compounds from ChEMBL document CHEMBL4145686, “Discovery of a Potent and Selective Steroidal Glucocorticoid Receptor Antagonist (ORIC-101)” (J Med Chem, 2018).

Activity calls are given as the source filed them. No cut-off for these calls is given here.

The nature of data set [1]: Volume of distribution at steady state in rat at 0.5 mg/kg, iv. The data set is classed as ADME, organism-based. As to conditions: in vivo, read-out: Vdss.
The target of data set [2] is T1, Glucocorticoid receptor (Canis lupus familiaris, UniProt A0A8C0QLS2).
T1 sequence (A0A8C0QLS2 whole entry): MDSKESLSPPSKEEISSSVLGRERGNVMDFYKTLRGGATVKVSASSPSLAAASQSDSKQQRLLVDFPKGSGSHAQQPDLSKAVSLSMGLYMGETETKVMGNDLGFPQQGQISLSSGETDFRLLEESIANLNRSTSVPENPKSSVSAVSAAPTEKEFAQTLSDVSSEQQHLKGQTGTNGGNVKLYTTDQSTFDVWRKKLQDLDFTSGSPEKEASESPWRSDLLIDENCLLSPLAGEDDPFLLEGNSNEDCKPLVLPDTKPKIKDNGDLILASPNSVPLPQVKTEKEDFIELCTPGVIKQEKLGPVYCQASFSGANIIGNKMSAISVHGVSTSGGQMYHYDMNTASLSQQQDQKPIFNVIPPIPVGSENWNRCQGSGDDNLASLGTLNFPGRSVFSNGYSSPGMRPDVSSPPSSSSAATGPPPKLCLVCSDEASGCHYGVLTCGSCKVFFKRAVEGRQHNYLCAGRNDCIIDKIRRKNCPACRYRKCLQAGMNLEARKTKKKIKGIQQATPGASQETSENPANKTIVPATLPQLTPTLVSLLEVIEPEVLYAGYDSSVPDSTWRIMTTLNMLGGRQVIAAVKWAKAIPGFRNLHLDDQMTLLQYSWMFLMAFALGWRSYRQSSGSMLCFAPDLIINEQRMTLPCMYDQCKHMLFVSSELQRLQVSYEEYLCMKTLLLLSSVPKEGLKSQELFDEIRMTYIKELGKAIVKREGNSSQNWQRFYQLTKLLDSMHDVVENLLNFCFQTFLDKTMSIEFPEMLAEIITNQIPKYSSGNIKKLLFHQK
The experiment in a line: Antagonist activity at GR in dog PBMC assessed as reduction in dexamethasone-induced FKBP5 gene expression incubated for 6 hrs by RT-qPCR method. It counts as cell-based. A general note: Quantitative PCR measures a nucleic acid by following its amplification.

The target in data set [3] is T2, Glucocorticoid receptor (Sus scrofa, UniProt Q9N1U3).
T2 sequence (Q9N1U3 whole entry): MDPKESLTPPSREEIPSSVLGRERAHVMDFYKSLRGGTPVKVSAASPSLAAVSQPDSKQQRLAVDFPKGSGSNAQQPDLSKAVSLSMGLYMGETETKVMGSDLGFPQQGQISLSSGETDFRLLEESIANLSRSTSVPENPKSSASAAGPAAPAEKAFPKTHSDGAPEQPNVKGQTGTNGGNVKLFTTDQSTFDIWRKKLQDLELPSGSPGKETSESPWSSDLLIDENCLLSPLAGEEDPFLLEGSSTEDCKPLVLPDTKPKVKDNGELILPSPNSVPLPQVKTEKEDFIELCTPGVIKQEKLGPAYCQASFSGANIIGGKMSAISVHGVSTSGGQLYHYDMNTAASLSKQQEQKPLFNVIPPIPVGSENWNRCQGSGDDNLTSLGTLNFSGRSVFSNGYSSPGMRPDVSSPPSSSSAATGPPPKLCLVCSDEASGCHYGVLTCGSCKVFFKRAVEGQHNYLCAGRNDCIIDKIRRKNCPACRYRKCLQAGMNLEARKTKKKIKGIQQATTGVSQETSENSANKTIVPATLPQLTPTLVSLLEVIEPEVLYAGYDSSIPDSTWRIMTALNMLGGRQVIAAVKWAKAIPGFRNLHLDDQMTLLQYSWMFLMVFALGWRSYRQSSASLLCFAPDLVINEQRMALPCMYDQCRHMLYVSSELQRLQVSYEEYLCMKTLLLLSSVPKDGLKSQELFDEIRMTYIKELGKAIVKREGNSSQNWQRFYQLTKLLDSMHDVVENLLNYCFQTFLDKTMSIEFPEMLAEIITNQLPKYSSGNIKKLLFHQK
Briefly: Antagonist activity at GR in mini pig PBMC assessed as reduction in dexamethasone-induced GILZ gene expression incubated for 24 hrs by RT-qPCR method. The data set is classed as cell-based.

A short description of data set [4]: Cmax in rat at 5 mg/kg, po. Further details: dose 5 mg/kg, route oral. To be noted: in vivo. It counts as ADME, organism-based.
A short description of data set [5]: Clearance in rat at 0.5 mg/kg, iv. The data set is classed as ADME, organism-based. To be noted: in vivo.
The target in data set [6] is T3, glucocorticoid receptor (GR) (Homo sapiens, UniProt P04150).
T3 sequence (P04150 whole entry): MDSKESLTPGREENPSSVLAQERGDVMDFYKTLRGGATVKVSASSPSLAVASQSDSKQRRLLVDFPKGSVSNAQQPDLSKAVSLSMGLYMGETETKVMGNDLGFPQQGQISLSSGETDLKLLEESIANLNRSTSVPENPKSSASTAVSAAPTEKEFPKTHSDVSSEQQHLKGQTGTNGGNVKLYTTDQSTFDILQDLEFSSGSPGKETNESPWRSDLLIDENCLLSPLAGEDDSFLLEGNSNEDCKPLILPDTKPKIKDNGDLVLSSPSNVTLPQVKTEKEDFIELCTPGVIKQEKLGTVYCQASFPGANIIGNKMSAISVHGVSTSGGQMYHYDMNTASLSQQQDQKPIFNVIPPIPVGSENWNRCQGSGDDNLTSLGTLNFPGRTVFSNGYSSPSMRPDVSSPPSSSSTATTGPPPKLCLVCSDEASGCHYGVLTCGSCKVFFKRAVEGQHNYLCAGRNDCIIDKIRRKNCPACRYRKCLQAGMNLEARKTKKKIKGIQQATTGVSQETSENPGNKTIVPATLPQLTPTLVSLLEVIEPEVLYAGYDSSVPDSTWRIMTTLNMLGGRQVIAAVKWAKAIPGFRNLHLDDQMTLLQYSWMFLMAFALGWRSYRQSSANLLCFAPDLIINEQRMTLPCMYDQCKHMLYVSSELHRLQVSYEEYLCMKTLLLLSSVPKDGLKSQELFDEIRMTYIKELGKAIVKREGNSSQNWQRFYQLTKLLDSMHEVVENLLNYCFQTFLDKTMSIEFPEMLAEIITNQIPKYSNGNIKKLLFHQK
The experiment in a line: Agonist activity at human GR expressed in CHO-K1 cells incubated for 20 hrs by luciferase reporter gene assay relative to dexamethasone. To be noted: CHO-K1 cells expressing human GR. It counts as cell-based. Background: In a reporter assay the amount or activity of a reporter protein is the signal.

Data set [7] is described as follows: Antagonist activity at GR in monkey PBMC assessed as reduction in dexamethasone-induced FKBP5 gene expression incubated for 6 hrs by RT-qPCR method. It counts as cell-based. As to conditions: Macaca mulatta.
The nature of data set [8]: Oral bioavailability in rat at 5 mg/kg. It counts as ADME, organism-based. As to conditions: in vivo.
In data set [9] the target is T2, Glucocorticoid receptor. Briefly: Antagonist activity at GR in mini pig PBMC assessed as reduction in dexamethasone-induced FKBP5 gene expression incubated for 24 hrs by RT-qPCR method. The data set is classed as cell-based.
Data set [10] in a line: AUC in rat at 5 mg/kg, po. To be noted: in vivo. The data set is classed as ADME, organism-based.
Data set [11] deals with T1, Glucocorticoid receptor. Briefly: Antagonist activity at GR in dog PBMC assessed as reduction in dexamethasone-induced GILZ gene expression incubated for 6 hrs by RT-qPCR method. The data set is classed as cell-based.
A further data set concerns the target Cytochrome P450 2C9 (Homo sapiens, UniProt P11712). The experiment in a line: Inhibition of CYP2C9 (unknown origin) using […] as substrate. The data set is classed as ADME.
Data set [12] in a line: Half life in rat at 0.5 mg/kg, iv. The data set is classed as ADME, organism-based. As to conditions: in vivo.
Data set [13] can be described thus: Antagonist activity at GR in monkey PBMC assessed as reduction in dexamethasone-induced GILZ gene expression incubated for 6 hrs by RT-qPCR method. The data set is classed as cell-based. To be noted: Macaca mulatta.
The target in a further data set is T4, Cytochrome P450 2C8 (Homo sapiens, UniProt P10632).
T4 sequence (P10632 whole entry): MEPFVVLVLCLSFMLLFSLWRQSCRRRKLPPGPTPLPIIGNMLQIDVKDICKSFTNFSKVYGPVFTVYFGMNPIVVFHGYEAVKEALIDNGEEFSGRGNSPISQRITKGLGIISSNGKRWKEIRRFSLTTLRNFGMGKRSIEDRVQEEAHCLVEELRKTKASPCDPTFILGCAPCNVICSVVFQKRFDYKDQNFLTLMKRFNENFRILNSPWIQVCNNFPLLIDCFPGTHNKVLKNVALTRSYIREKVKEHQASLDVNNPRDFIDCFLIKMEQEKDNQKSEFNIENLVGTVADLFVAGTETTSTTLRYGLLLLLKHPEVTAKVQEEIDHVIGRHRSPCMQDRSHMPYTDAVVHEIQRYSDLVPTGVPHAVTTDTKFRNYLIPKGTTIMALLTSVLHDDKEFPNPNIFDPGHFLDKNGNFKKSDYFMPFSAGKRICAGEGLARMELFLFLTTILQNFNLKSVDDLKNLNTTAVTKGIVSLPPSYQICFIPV
The experiment in a line: Inhibition of CYP2C8 (unknown origin) using […] as substrate. It counts as ADME.

The subject of a further data set is OVCAR-5. As to conditions: Homo sapiens, 100 mg/kg.
Data set [14] addresses T5, Androgen receptor (Homo sapiens, UniProt P10275).
T5 sequence (P10275 whole entry): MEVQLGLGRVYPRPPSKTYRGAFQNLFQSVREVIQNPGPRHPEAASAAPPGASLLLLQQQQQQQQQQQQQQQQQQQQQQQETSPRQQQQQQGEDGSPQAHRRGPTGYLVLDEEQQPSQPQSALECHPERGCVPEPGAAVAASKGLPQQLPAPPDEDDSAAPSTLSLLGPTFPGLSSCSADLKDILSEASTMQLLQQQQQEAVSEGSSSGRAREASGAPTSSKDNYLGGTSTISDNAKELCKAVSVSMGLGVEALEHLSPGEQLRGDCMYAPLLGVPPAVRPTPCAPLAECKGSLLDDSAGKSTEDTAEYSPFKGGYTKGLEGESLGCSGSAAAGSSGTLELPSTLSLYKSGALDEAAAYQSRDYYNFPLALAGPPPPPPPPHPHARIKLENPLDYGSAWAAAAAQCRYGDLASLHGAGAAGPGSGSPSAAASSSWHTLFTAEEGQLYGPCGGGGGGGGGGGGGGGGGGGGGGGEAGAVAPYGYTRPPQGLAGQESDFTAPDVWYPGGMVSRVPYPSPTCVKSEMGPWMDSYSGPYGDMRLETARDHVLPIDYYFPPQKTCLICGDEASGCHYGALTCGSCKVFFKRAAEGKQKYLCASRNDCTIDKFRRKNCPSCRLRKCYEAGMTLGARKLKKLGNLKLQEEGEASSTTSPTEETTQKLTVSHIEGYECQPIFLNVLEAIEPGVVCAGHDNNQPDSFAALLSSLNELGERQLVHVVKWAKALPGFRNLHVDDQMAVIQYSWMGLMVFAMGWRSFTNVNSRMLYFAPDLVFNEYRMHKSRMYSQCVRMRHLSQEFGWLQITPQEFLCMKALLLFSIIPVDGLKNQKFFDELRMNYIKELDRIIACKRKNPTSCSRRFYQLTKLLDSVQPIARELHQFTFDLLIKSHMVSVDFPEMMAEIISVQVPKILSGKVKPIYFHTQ
Briefly: Agonist activity at AR in human LNAR cells assessed as increase in TMPRSS2 gene expression at 0.1 nM incubated for 24 hrs by RT-qPCR method. The data set is classed as cell-based. To be noted: 0.0001 µM.

The target of data set [15] is T5, Androgen receptor. The experiment in a line: Agonist activity at AR in human LNAR cells assessed as increase in PSA gene expression at 0.1 nM incubated for 24 hrs by RT-qPCR method. The data set is classed as cell-based. To be noted: 0.0001 µM.
Data set [16] deals with T5, Androgen receptor. Briefly: Agonist activity at AR in human LNAR cells assessed as increase in TMPRSS2 gene expression at 0.1 nM incubated for 24 hrs in presence of 1 uM enzalutamide by RT-qPCR method. To be noted: 0.0001 µM. The data set is classed as cell-based.
For data set [17], the target named is T5, Androgen receptor. The experiment in a line: Agonist activity at AR in human LNAR cells assessed as increase in PSA gene expression at 0.1 nM incubated for 24 hrs in presence of 1 uM enzalutamide by RT-qPCR method. As to conditions: 0.0001 µM. The data set is classed as cell-based.

Chain of Cytochrome P450 2C9 (P11712 whole entry): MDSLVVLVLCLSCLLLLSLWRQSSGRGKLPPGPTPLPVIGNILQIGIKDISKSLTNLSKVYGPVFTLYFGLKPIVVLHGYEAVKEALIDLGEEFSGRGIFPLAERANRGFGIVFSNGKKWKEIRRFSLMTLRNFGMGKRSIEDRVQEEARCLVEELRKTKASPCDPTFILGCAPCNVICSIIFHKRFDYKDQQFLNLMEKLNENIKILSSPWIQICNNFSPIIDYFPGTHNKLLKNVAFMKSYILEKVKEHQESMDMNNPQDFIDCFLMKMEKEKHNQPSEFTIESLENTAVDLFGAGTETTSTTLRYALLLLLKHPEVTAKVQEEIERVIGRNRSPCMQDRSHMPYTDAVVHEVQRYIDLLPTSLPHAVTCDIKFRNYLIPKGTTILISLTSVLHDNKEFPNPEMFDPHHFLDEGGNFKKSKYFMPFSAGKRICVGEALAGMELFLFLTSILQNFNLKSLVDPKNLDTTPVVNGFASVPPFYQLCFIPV

As usually defined, the IC50 is the concentration that inhibits the measured activity by half. A word on the Cmax: it is the highest concentration seen after dosing. As usually defined, the clearance is the volume of plasma or blood freed of the substance per unit of time. What is called Emax is the size of the effect at its maximum, as opposed to the concentration needed. A word on the bioavailability: it is the share of a dose that reaches the circulation, judged against a reference dose that is usually intravenous. As usually defined, the AUC is concentration integrated over time. As a reminder, the half-life is the time in which the quantity being followed falls by half. Take `CC#C[C@]1(O)CC[C@H]2[C@@H]3CCC4=CC(=O)CCC4=C3[C@@H](c3ccc(N(C)C)cc3)C[C@@]21C` [MIFEPRISTONE]: the Vd in [1] stood at 4.1 L/kg. Also, the IC50 was 20.2 nM on Glucocorticoid receptor [2]; 10.9 to 25.7 nM on Glucocorticoid receptor [3]; 21.9 nM in [7]; 19.7 nM at Glucocorticoid receptor [9]; 32.6 nM on Glucocorticoid receptor [11]; 4900 nM at Cytochrome P450 2C9. For the same compound, the figures for the concentration for half-maximal inhibition (IC50) (in [13]; against Cytochrome P450 2C8) were 13.9 nM and 1500 nM, respectively. The peak level in data set [4] (Cmax) was 24 ng/mL. Also, in data set [5], the clearance is 61.7 mL/min/kg. In data set [6], this compound yielded an Emax at 20 h of 3.1%. The compound further yielded a bioavailability in data set [8] of 6.4%. This compound had an AUC in data set [10] of 85 ng·h/mL. The same compound gave a half-life in [12] of 1.6 h.
Take `Nc1ccn([C@@H]2O[C@H](CO)[C@@H](O)C2(F)F)c(=O)n1`: the TGI entry with OVCAR-5 is “Active”.
In the case of `C[C@]1(O)CC[C@H]2[C@@H]3CCC4=CC(=O)CCC4=C3C=C[C@@]21C` [METRIBOLONE], the Activity entry is reported as “Active” on Androgen receptor [14], “Active” on Androgen receptor [15], “Not Active” on Androgen receptor [16] and “Not Active” at Androgen receptor [17].
